Assay results taken from patent US9150617B2, “Immunoregulatory peptides and methods of use” (13 Therapeutics, Inc., priority 2009, dated 2015).
Ends that are not written are not given here.

What was measured:
[1] = system: TNF-α secretion from RAW264.7 cells; test: Inhibition of TNF-α secretion from RAW264.7 cells stimulated with LPS (ELISA); type: cell-based, murine; conditions: LPS Stimulation, 1 ng/ml LPS
Description: (§1) RAW264.7 (murine monocyte/macrophage cells (American Type Culture Collection) were cultured at 37° C. in a 5% CO2 humidified incubator and grown in DMEM (Invitrogen Life Technologies) supplemented with 10% (v/v) heat-inactivated FCS, 1.5 mM L-glutamine, 100 U/ml penicillin, and 100 μg/ml streptomycin.
(§2) RAW264.7 cells were plated at 1.5×10^5 cells/well −3×10^5 cells/well in 48-well plates. After 24 hours, the cells were incubated with peptides at various concentrations at room temperature in triplicate either before, simultaneous with, or after activation with various PAMPs for 18 hours. Cell-free supernatants were analyzed for cytokines by ELISA, in quadruplicate. RAW264.7 cells were stimulated with either CpG-ODN (1 μg/ml or 1.25 μg/ml), LPS (about 1 ng/ml), Poly (I:C) (about 10 μg/ml), flagellin (about 5 ng/ml), or zymosan (about 10 μg/ml). Dose response curves were done with each PAMP to determine optimal stimulation concentration. For CpG-ODN stimulation, cells were incubated for 4 hours at 37° C., supernatants collected, and TNF-α measured by ELISA. Any cytokine involved in inflammatory disease mediated toll receptor signaling can be measured using similar assays.
(§3) Inhibition of TNF-α secretion by various T-peptides was examined. RAW264.7 cells were plated at 3×10^5 cells/well in 48-well plates. After 24 h the cells were incubated with peptide at various concentrations at room temperature in triplicate for 15 minutes and then stimulated with 1.25 ug/ml CpG-ODN or 1 ng/ml LPS. Cells were then incubated for 4 hours at 37° C., supernatants collected, and TNF-α measured by ELISA. Percent inhibition was calculated by comparing TNF-α secretion from cells incubated with peptide to control cells with no peptide treatment. The inhibition by peptides T3, T11, T21, T36, T37, T51 and T52 were compared to inhibition by an analogue of P13 having a sequence of nine arginine residues (SEQ ID NO: 379) at the C-terminus (P13-R^9; SEQ ID NO: 378). (Table 4).

[2] = system: TNF-α secretion from RAW264.7 cells; test: Inhibition of TNF-α secretion from RAW264.7 cells stimulated with CpG-ODN (ELISA); type: cell-based, murine; conditions: for activity vis-à-vis P13 (inhibition of TNF-α after stimulation of RAW264.7 cells with CpG): SAR, compared with P13; for Inhibition of TNF-α secretion (percent inhibition): 4 hours (Table 3)
Description: as §1, §2
The effect of several peptides on TNF-α secretion from RAW264.7 cells in response to stimulation by CpG-ODN was studied. Each peptide was initially tested at 3 concentrations, 37 μM, 22.2 μM, and 11.1 μM. […] The peptides were then tested at 11.1 μM, 7.4 μM, and 3.7 μM (Table 3). […] Cell viability was examined for each peptide at the concentrations tested for TNF-α inhibition.
as §3

mouse middle ear = test: Effects caused by peptide without added bacteria on mouse middle ear; type: in vivo; conditions: 10 μM, no bacteria, 3 days
Description: (§4) Induction of otitis media: BALB/c (Bagg albino) mice, about 8-12 weeks of age, are anesthetized with a subcutaneous injection of xylazine & ketamine (about 0.1 mg/30 gm body weight) and their ears examined under the operating microscope to assure they are free of infection or perforation. One group of animals is injected with PBS (Phospho-buffered saline) in one ear and with about 10 μM of a peptide of Table 1 in the opposite ear, to determine the effect of peptide without added bacteria. A second group of animals receive about 5.0 μl of PBS plus heat-inactivated S. pneumoniae (about 10^9 CFU/ml) in one ear and about 5.0 μl of peptide (about 10 μM) plus heat-inactivated S. pneumoniae (about 10^9 CFU/ml) in the opposite ear. Injections are done through the tympanic membrane. Animals are killed about 3 days after bacterial injection and tissue is histologically processed to assess middle ear disease. Inflammation is quantified by measuring 1) area of fluid present in the middle ear; 2) number of cells in middle ear fluid; and 3) thickness of the tympanic membrane (TM) taken at a point away from the injection site. Data are obtained from mice (n=18) injected with PBS alone for each of the histological parameters measured, to serve as a control group.
To determine the effect of peptide without added bacteria, animals are injected in one ear with PBS alone, and the other ear with about 10 μM peptide. Paired t-tests are done comparing the effect of PBS alone with the effect of peptide for each of the three histological parameters: 1) area of fluid present in the middle ear; 2) number of cells in middle ear fluid; and 3) thickness of the tympanic membrane. […]
Five mice were injected in one ear with PBS and in the opposite ear with 10 μM peptide P13. Three days later the animals were killed, and the middle ears embedded, sectioned, stained and evaluated for fluid area, infiltrating cell number, and thickness of the tympanic membrane. […]

[3] = system: tympanic membrane of BALB/c mice; test: Assay for crossing the tympanic membrane by FITC-labeled peptide; type: in vivo, mouse; conditions: 10 μg/30 μl dropped onto ear with AOM, 10 minutes; fluorescent microscopy of middle ear fluid
Description: Three BALB/c mice at 8-12 weeks of age were anesthetized with ketamine (100 mg/kg) and xylazine (20 mg/kg) prior to administration of bacteria. A ventral midline incision was made in the neck, and the bulla exposed after blunt dissection. The middle ear was inoculated through the bony wall with approximately 3.5 μl of a bacterial suspension (heat inactivated S. pneumoniae 10^10 CFU/ml) with a thin needle. Both the right and left ears received bacteria by bulla injection.
After 24 hours, animals received an otoscopic exam using an operating microscope. Mice were anesthetized as described above, and the tympanic membrane was inspected for the presence or absence of the following three criteria for acute otitis media (AOM): 1) middle ear effusion behind the tympanic membrane; 2) change in color of the tympanic membrane from clear to red or white (indicating inflammation and/or purulence in the middle ear); 3) change in position of the tympanic membrane from neutral to bulging or retracted.
Four ears met the criteria for AOM. FITC labeled peptide P13-R^9 (SEQ ID NO: 378) (10 μg/30 μl) was dropped onto the middle ear. The peptide was allowed to absorb for 10 minutes. After 10 minutes, the external ear canal was flushed twice, and blotted to get rid of any remaining peptide. […]

[4] = system: LPS-induced septic shock in mice; test: Mouse model of LPS-induced septic shock; type: in vivo
Description: BALB/c mice are injected i.p. with PBS, LPS at about 100 μg/mouse/250 μl, or about 100 μg LPS plus various doses of peptides. Serum is collected at about 2 and about 6 hours after treatment and evaluated for the pro-inflammatory cytokines MIP-2 and TNF-α by ELISA, and for soluble ICAM-1.

[5] = system: toll-like receptor-dependent signaling; test: Cytokine secretion in response to TLR activation; type: cell-based
Description: as §2

[6] = system: middle ear inflammation in BALB/c mice; test: Middle ear inflammation, heat-inactivated S. pneumoniae plus peptide injected into the middle ear; type: in vivo, mouse; conditions: heat-inactivated S. pneumoniae into middle ears of BALB/c mice
Description: as §4, with “Injections are done through the tympanic membrane. Animals are killed about 3 days after bacterial injection and tissue is histologically processed to assess middle ear disease.” left out
At the end of the experimental treatment, mice are killed and tissues collected for histology. […] This enables all histologic embedding, sectioning, staining, and analysis to be done on the two sides simultaneously to reduce any impact of processing variables on the subsequent quantitative analyses. […]

[7] = 7.1 μM peptide, CpG stimulation, 1.25 ug/ml CpG-ODN
[8] = 11.1 μM peptide, CpG stimulation, 1.25 ug/ml CpG-ODN
[9] = 22 μM peptide, CpG stimulation, 1.25 ug/ml CpG-ODN
[10] = 11.1 μM peptide, 1 ug/ml CpG-ODN, 4 hours (Table 2)
[11] = 22.2 μM peptide, 1 ug/ml CpG-ODN, 4 hours

## AIVKLTVYDCIRRRRRRRRR [T3-R^9]
[1]; 7.4 uM peptide
  Percent Inhibition of TNF-α secretion: 33%
[1]; 11.1 uM peptide
  Percent Inhibition of TNF-α secretion: 65%
[1]; 22.2 uM peptide
  Percent Inhibition of TNF-α secretion: 77%
[2]; [7]
  Percent Inhibition of TNF-α secretion: 85%
[2]; [8]
  Percent Inhibition of TNF-α secretion: 92%
[2]; [9]
  Percent Inhibition of TNF-α secretion: 99%
[2]
  activity vis-à-vis P13 (inhibition of TNF-α after stimulation of RAW264.7 cells with CpG): superior activity

## DIVKLTVYDCI [Peptide P13, DIVKLTVYDCI]
Mouse middle ear
  difference between PBS-injected ear and P13-injected ear in cell number: no differences
  difference between PBS-injected ear and P13-injected ear in fluid area: no differences
  difference between PBS-injected ear and P13-injected ear in tympanic membrane thickness: no differences

## DIIKLTVYDCIRRRRRRRRR [T36-R^9]
[2]; [7]
  Percent Inhibition of TNF-α secretion: 50%
[2]; [8]
  Percent Inhibition of TNF-α secretion: 70%
[2]; [9]
  Percent Inhibition of TNF-α secretion: 82%
[2]
  activity vis-à-vis P13 (inhibition of TNF-α after stimulation of RAW264.7 cells with CpG): superior activity

## DIVKLTVYACIRRRRRRRRR [T11-R^9]
[1]; 7.4 uM peptide
  Percent Inhibition of TNF-α secretion: 68%
[1]; 11.1 uM peptide
  Percent Inhibition of TNF-α secretion: 81%
[1]; 22.2 uM peptide
  Percent Inhibition of TNF-α secretion: 91%
[2]
  activity vis-à-vis P13 (inhibition of TNF-α after stimulation of RAW264.7 cells with CpG): superior activity

## AIIKVYVYACIRRRRRRRRR [T52-R^9]
[2]; [7]
  Percent Inhibition of TNF-α secretion: 97.8%
[2]; [8]
  Percent Inhibition of TNF-α secretion: 99.2%
[2]; [9]
  Percent Inhibition of TNF-α secretion: 100%
[2]
  activity vis-à-vis P13 (inhibition of TNF-α after stimulation of RAW264.7 cells with CpG): superior activity

## DIVKLYVYDCIRRRRRRRRR [T21-R^9]
[2]; [7]
  Percent Inhibition of TNF-α secretion: 69%
[2]; [8]
  Percent Inhibition of TNF-α secretion: 90%
[2]; [9]
  Percent Inhibition of TNF-α secretion: 98%
[2]
  activity vis-à-vis P13 (inhibition of TNF-α after stimulation of RAW264.7 cells with CpG): superior activity

## DIVKVTVYDCIRRRRRRRRR [T37-R^9]
[2]; [7]
  Percent Inhibition of TNF-α secretion: 46%
[2]; [8]
  Percent Inhibition of TNF-α secretion: 87%
[2]; [9]
  Percent Inhibition of TNF-α secretion: 93%
[2]
  activity vis-à-vis P13 (inhibition of TNF-α after stimulation of RAW264.7 cells with CpG): superior activity

## LLEEYFMYGLLGLRIRRRRRRRRR [Peptide 106 (S22)-R^9]
[2]; 7 μM peptide, 1 ug/ml CpG-ODN
  Inhibition of TNF-α secretion (percent inhibition): 53%
[2]; 11 μM peptide, 1 ug/ml CpG-ODN
  Inhibition of TNF-α secretion (percent inhibition): 70%
[2]; [10]
  Percent Inhibition of TNF-α secretion: 70%
[2]; [11]
  Percent Inhibition of TNF-α secretion: 92%

## AIVKLTVYACIRRRRRRRRR [T51-R^9]
[2]; [7]
  Percent Inhibition of TNF-α secretion: 94%
[2]; [8]
  Percent Inhibition of TNF-α secretion: 98%
[2]; [9]
  Percent Inhibition of TNF-α secretion: 99.7%
[2]
  activity vis-à-vis P13 (inhibition of TNF-α after stimulation of RAW264.7 cells with CpG): superior activity

## TILLEEYFMYRGLLGLRIRRRRRRRRR [Peptide 104 (S20)-R^9]
[2]; 7 μM peptide, 1 ug/ml CpG-ODN
  Inhibition of TNF-α secretion (percent inhibition): 60%
[2]; 11 μM peptide, 1 ug/ml CpG-ODN
  Inhibition of TNF-α secretion (percent inhibition): 74%
[2]; [10]
  Percent Inhibition of TNF-α secretion: 74%
[2]; [11]
  Percent Inhibition of TNF-α secretion: 93%

## FITC-labeled P13-R^9: FITC (Fluorescein isothiocyanate) labeled peptide P13-R^9 (SEQ ID NO: 378) (DIVKLTVYDCIRRRRRRRRR; also: FITC label)
[3]
  crossing the tympanic membrane: crosses the tympanic membrane and associates with cells in middle ear fluid

## DIVKLTVYDCIRRRRRRRRR [P13-R^9]
[4]
  pro-inflammatory mediators: reduce pro-inflammatory mediators
[1]; 7.4 uM peptide
  Percent Inhibition of TNF-α secretion: 0%
[1]; 11.1 uM peptide
  Percent Inhibition of TNF-α secretion: 13%
[1]; 22.2 uM peptide
  Percent Inhibition of TNF-α secretion: 69%
[2]; [7]
  Percent Inhibition of TNF-α secretion: 32%
[2]; [8]
  Percent Inhibition of TNF-α secretion: 65%
[2]; [9]
  Percent Inhibition of TNF-α secretion: 86%
[5]
  cytokine secretion in response to TLR activation: effectively inhibits
[6]
  bacterial-induced inflammatory response in the middle ear: dramatically reduced

## ILLEEYFMYRGLLGLRIRRRRRRRRR [Peptide 105 (S21)-R^9]
[2]; 7 μM peptide, 1 ug/ml CpG-ODN
  Inhibition of TNF-α secretion (percent inhibition): 52%
[2]; 11 μM peptide, 1 ug/ml CpG-ODN
  Inhibition of TNF-α secretion (percent inhibition): 62%
[2]; [10]
  Percent Inhibition of TNF-α secretion: 62%
[2]; [11]
  Percent Inhibition of TNF-α secretion: 91%

## FTILLEEYFMYRGLLGLRIRRRRRRRRR [Peptide 103 (S19)-R^9]
[2]; 7 μM peptide, 1 ug/ml CpG-ODN
  Inhibition of TNF-α secretion (percent inhibition): 87%
[2]; 11 μM peptide, 1 ug/ml CpG-ODN
  Inhibition of TNF-α secretion (percent inhibition): 93%
[2]; [10]
  Percent Inhibition of TNF-α secretion: 93%
[2]; [11]
  Percent Inhibition of TNF-α secretion: 99%
